Assay results reported in patent US7906510B2, “Amide derivative and pharmaceutical composition containing the same” (Dainippon Sumito Pharma Co., Ltd., priority 2008, dated 2011).
Counter-ions that a name gives are not always drawn.

target: T1, 5-HT4 receptor (Cavia porcellus, UniProt O70528); test: Serotonin 4 (5-HT4) receptor binding assay; design: species or system guinea pig; conditions: not given
T1 construct: the mixture was suspended to give receptor membrane preparations; from tissue; host or cells: guinea pig (Slc-Hartley) brain striatum membranes
T1 sequence (O70528 whole entry): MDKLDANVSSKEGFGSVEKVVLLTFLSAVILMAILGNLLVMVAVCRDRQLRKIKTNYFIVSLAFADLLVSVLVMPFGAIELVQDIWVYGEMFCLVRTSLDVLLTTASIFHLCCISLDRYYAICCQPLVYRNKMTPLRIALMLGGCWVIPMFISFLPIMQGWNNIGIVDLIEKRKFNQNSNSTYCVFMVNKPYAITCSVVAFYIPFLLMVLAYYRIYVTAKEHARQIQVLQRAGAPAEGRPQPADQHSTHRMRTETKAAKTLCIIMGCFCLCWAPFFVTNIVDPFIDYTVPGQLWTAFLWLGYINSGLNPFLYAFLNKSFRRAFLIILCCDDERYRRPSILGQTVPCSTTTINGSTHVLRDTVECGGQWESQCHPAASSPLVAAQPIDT
Method: 5-HT4 receptor binding assay and preparations of receptor membrane preparations were carried out according to a method of Grossman et al. [see British J. Pharmacol., (1993) 109, 618].
Slc-Hartley guinea pigs (body weight 300 to 400 g) were decapitated to remove brain rapidly, and striatum was isolated. To the obtained tissues were added fifteenfold of Hepes buffer (50 mM, pH7.4, 4° C.), and the mixture was homogenized by Teflon® homogenizer and centrifuged at 48,000×g (4° C.) for 15 minutes. To the resulting precipitate was added Hepes buffer (1 ml) to 30 mg by wet weight of tissues, and the mixture was suspended to give receptor membrane preparations.
0.1 nM [^3H]-GR113808 {chemical name: [1-[2-(methylsulfonylamino)ethyl]-4-piperidinyl]methyl 1-methylindole-3-carboxylate}, receptor membrane preparations, and Hepes buffer (50 mM, pH7.4, 4° C., 1 ml) containing test compounds or 30 μM serotonin were placed in an assay tube, and incubated at 37° C. for 30 minutes. On quenching the reaction, the mixture was rapidly filtered on whatman GF/B filter, which was presoaked in 0.1% polyethyleneimine for 1 hour, by using Brandel cell Harvester, and washed with ice-cooled 50 mM Tris-HCl (pH7.7, 4 ml) three times. To the filter after filtration was added ACS II scintillator, and then a radioactivity was determined by a liquid scintillation counter.
50% inhibition concentrations (IC50) were determined from inhibition rates of test compounds to specific bindings which were obtained by subtracting nonspecific bindings from total binding amounts of [^3H]-GR113808.

| Structure (SMILES) | IC50 [nM] |
| --- | --- |
| COc1ccccc1OC(=O)N1CCC(CN2CCO[C@@H](CNC(=O)c3cc(Cl)c(N)cc3OC)C2)CC1 [Example 107] | 3.43 |
| COc1cc(N)c(Cl)cc1C(=O)NC[C@H]1CN(CC2CCN(C(=O)Oc3ccccc3)CC2)CCO1 [Example 106] | 6.12 |

same assay, conditions: inhibition of specific binding of 0.1 nM [3H]-GR113808; guinea pig striatum membrane preparations; 37° C., 30 minutes; read-out: IC50

| Structure (SMILES) | IC50 [nM] |
| --- | --- |
| CCOc1cc(N)c(Cl)cc1C(=O)NCC1CN(CC2CCN(C(=O)c3cccc(F)c3)CC2)CCO1 (stereo not shown) [Example 114] | 2.22 |
| COc1ccccc1NC(=O)N1CCC(CN2CCO[C@@H](CNC(=O)c3cc(Cl)c(N)cc3OC)C2)CC1 [Example 53] | 1.46 |
| COC(=O)N1CCC(CN2CCOC(CNC(=O)c3cc(Cl)c(N)c4c3OCC4)C2)CC1 (stereo not shown) [Example 138] | 2.8 |
| C=CCCC=CC(=O)N1CCC(CN2CCOC(CNC(=O)c3cc(Cl)c(N)cc3OCC)C2)CC1 (racemic) [Example 164] | 7.5 |
| COc1cc(N)c(Cl)cc1C(=O)NC[C@H]1CN(CC2CCN(C(=O)CC3CCNCC3)CC2)CCO1 [Example 194] | 10.1 |
| COc1cc(N)c(Cl)cc1C(=O)NC[C@H]1CN(CC2CCN(C(=O)NCc3ccccc3)CC2)CCO1 [Example 59] | 2.83 |
| COc1cc(N)c(Cl)cc1C(=O)NC[C@H]1CN(CC2CCN(C(=O)NCCc3ccccc3)CC2)CCO1 [Example 63] | 8.6 |
| COc1cc(N)c(Cl)cc1C(=O)NC[C@H]1CN(CC2CCN(C(=O)c3ccc(C)s3)CC2)CCO1 [Example 178] | 1.24 |
| COc1cc(N)c(Cl)cc1C(=O)NC[C@H]1CN(CC2CCN(C(=O)c3ccccc3Oc3ccccc3)CC2)CCO1 [Example 170] | 5.65 |
| COc1cc(N)c(Cl)cc1C(=O)NC[C@H]1CN(CC2CCN(C(=O)Nc3ccccc3)CC2)CCO1 [Example 52] | 1.94 |
| CCOc1cc(N)c(Cl)cc1C(=O)NC[C@H]1CN(CC2CCN(C(=O)c3ccc(OC)cc3)CC2)CCO1 [Example 126] | 2.32 |
| COc1cc(N)c(Cl)cc1C(=O)NC[C@H]1CN(CC2CCN(C(=O)c3ccc(-c4ccccc4)cc3)CC2)CCO1 [Example 175] | 6.13 |
| Nc1c(Cl)cc(C(=O)NC[C@H]2CN(CC3CCN(C(=O)C4CCOC4)CC3)CCO2)c2c1CCO2 (stereo partly shown) [Example 232] | 7.34 |
| COc1cc(N)c(Cl)cc1C(=O)NC[C@H]1CN(CC2CCN(C(=O)N3CCCC3)CC2)CCO1 [Example 89] | 7.33 |
| COc1cc(N)c(Cl)cc1C(=O)NC[C@H]1CN(CC2CCN(C(=O)CC#N)CC2)CCO1 [Example 223] | 18.6 |
| COc1cc(N)c(Cl)cc1C(=O)NC[C@H]1CN(CC2CCN(C(=O)c3ccc(Cl)cc3)CC2)CCO1 [Example 115] | 2.48 |
| CCOc1cc(N)c(Cl)cc1C(=O)NC[C@H]1CN(CC2CCN(C(=O)n3ccnc3)CC2)CCO1 [Example 206, (S)-4-amino-5-chloro-2-ethoxy-N-[{4-[(1-imidazolecarbonyl-4-piperidinyl)-methyl]-2-morpholinyl}methyl]benzamide] | 10.6 |
| C=CC=CC(=O)N1CCC(CN2CCOC(CNC(=O)c3cc(Cl)c(N)cc3OCC)C2)CC1 (racemic) [Example 163] | 6.58 |
| Nc1c(Cl)cc(C(=O)NC[C@H]2CN(CC3CCN(C(=O)CO)CC3)CCO2)c2c1CCO2 [Example 233, (S)-4-amino-5-chloro-N-[{4-[(1-hydroxyacetyl-4-piperidinyl)methyl]-2-morpholinyl}methyl]-2,3-dihydrobenzo[b]furan-7-carboxamide] | 12.1 |
| COc1cc(N)c(Cl)cc1C(=O)NC[C@H]1CN(CC2CCN(C(=O)c3ccc(C(C)(C)C)cc3)CC2)CCO1 [Example 123] | 2.11 |
| COc1cc(N)c(Cl)cc1C(=O)NC[C@H]1CN(CC2CCN(C(=O)c3ccc(O)cc3)CC2)CCO1 [Example 202] | 4.52 |
| COc1cc(N)c(Cl)cc1C(=O)NC[C@H]1CN(CC2CCN(C(=O)c3ccc(N)c(Cl)c3)CC2)CCO1 [Example 176] | 0.72 |
| CCOc1cc(N)c(Cl)cc1C(=O)NC[C@H]1CN(CC2CCN(C(=O)NC)CC2)CCO1 [Example 47] | 8.04 |
| COc1cc(N)c(Cl)cc1C(=O)NC[C@H]1CN(CC2CCN(C(=O)Nc3cccc(C(C)=O)c3)CC2)CCO1 [Example 56] | 2.9 |
| COc1cc(N)c(Cl)cc1C(=O)NC[C@H]1CN(CC2CCN(C(=O)c3ccc(N(C)C)cc3)CC2)CCO1 [Example 172] | 0.87 |
| CCOc1cc(N)c(Cl)cc1C(=O)NC[C@H]1CN(CC2CCN(C(=O)c3ccccc3OC(C)=O)CC2)CCO1 [Example 167] | 6.36 |

| Structure (SMILES) | IC50 [nM] |
| --- | --- |
| COc1cc(N)c(Cl)cc1C(=O)NC[C@H]1CN(CC2CCN(C(=O)OCC(C)C)CC2)CCO1 [Example 102] | 6.79 |
| COc1cc(N)c(Cl)cc1C(=O)NC[C@H]1CN(CC2CCN(C(=O)Nc3cccc(C(F)(F)F)c3)CC2)CCO1 [Example 54] | 5.91 |
| COc1cc(N)c(Cl)cc1C(=O)NC[C@H]1CN(CC2CCN(C(=O)c3cccc(N(C)C)c3)CC2)CCO1 [Example 171] | 2.16 |
| COC(=O)c1ccc(C(=O)N2CCC(CN3CCO[C@@H](CNC(=O)c4cc(Cl)c(N)cc4OC)C3)CC2)cc1 [Example 174] | 8.52 |
| Nc1c(Cl)cc(C(=O)NCC2CN(CC3CCN(C(=O)N4CCCC4)CC3)CCO2)c2c1CCO2 (stereo not shown) [Example 134] | 1.5 |
| CC(=O)N1CCC(CN2CCO[C@@H](CNC(=O)c3cc(Cl)c(N)c4c3OCC4)C2)CC1 [Example 231] | 9.18 |
| COc1cc(N)c(Cl)cc1C(=O)NC[C@H]1CN(CC2CCN(C(=O)Nc3cc(C)cc(C)c3)CC2)CCO1 [Example 57] | 1.82 |
| CCOc1cc(N)c(Cl)cc1C(=O)NCC1CN(CC2CCN(C(=O)c3ccccc3)CC2)CCO1 (stereo not shown) [Example 112] | 3.01 |
| COc1cc(N)c(Cl)cc1C(=O)NC[C@H]1CN(CC2CCN(C(=O)c3ccco3)CC2)CCO1 [Example 131] | 6.96 |
| COc1cc(N)c(Cl)cc1C(=O)NC[C@H]1CN(CC2CCN(C(=O)c3cccc(OC(C)=O)c3)CC2)CCO1 [Example 168] | 5.17 |
| COc1cc(N)c(Cl)cc1C(=O)NC[C@H]1CN(CC2CCN(C(=O)c3cccc(Br)c3)CC2)CCO1 [Example 117] | 0.04 |
| COc1cc(N)c(Cl)cc1C(=O)NC[C@H]1CN(CC2CCN(C(=O)C(C)=O)CC2)CCO1 [Example 227] | 6.2 |
| COc1cc(N)c(Cl)cc1C(=O)NC[C@H]1CN(CC2CCN(C(=O)c3cccc(O)c3)CC2)CCO1 [Example 201] | 4.45 |
| COc1ccc(CNC(=O)N2CCC(CN3CCO[C@@H](CNC(=O)c4cc(Cl)c(N)cc4OC)C3)CC2)cc1 [Example 61] | 3.7 |
| COc1cc(N)c(Cl)cc1C(=O)NC[C@H]1CN(CC2CCN(C(=O)c3ccc(C)cc3)CC2)CCO1 [Example 120] | 2.63 |
| COc1cc(N)c(Cl)cc1C(=O)NC[C@H]1CN(CC2CCN(C(=O)NCc3ccccc3C)CC2)CCO1 [Example 60] | 1.86 |
| COc1cc(N)c(Cl)cc1C(=O)NC[C@H]1CN(CC2CCN(C(=O)c3cccc4c3OCC4)CC2)CCO1 [Example 177] | 1.62 |
| COc1cc(N)c(Cl)cc1C(=O)NC[C@H]1CN(CC2CCN(C(=O)c3ccccc3C)CC2)CCO1 [Example 118] | 1.7 |
| C=CCCCCC(=O)N1CCC(CN2CCOC(CNC(=O)c3cc(Cl)c(N)cc3OCC)C2)CC1 (racemic) [Example 162] | 7.9 |
| COc1cc(N)c(Cl)cc1C(=O)NC[C@H]1CN(CC2CCN(C(=O)NCc3ccc(Cl)cc3Cl)CC2)CCO1 [Example 62] | 2.51 |
| CCOc1cc(N)c(Cl)cc1C(=O)NCC1CN(CC2CCN(C(=O)N3CCCC3)CC2)CCO1 (stereo not shown) [Example 90, 4-amino-5-chloro-2-ethoxy-N-[{4-[(1-(1-pyrrolidinecarbonyl)-4-piperidinyl)-methyl]-2-morpholinyl}methyl]benzamide 1.5 fumarate] | 6.98 |
| CS(=O)(=O)N1CCC(CN2CCOC(CNC(=O)c3cc(Cl)c(N)c4c3OCC4)C2)CC1 (stereo not shown) [Example 140] | 2.84 |
| COc1cc(N)c(Cl)cc1C(=O)NC[C@H]1CN(CC2CCN(C(=O)c3cccc(F)c3)CC2)CCO1 [Example 113] | 2.23 |
| CN(C)C(=O)N1CCC(CN2CCO[C@@H](CNC(=O)c3cc(Cl)c(N)c4c3OCC4)C2)CC1 [Example 136] | 4.26 |
| CCCOC(=O)N1CCC(CN2CCO[C@@H](CNC(=O)c3cc(Cl)c(N)cc3OC)C2)CC1 [Example 98] | 9.62 |

test system: Male Slc-ddy mice; test: Mouse defecation assay; type: in vivo; design: key: −: No Effect; +: Moderately Improved (p<0.05); ++: Significantly Improved (p<0.01); conditions: 3 mg/kg orally; stool weight 30, 60 and 120 minutes after administration; Dunnett assay vs control
Method: Male Slc-ddy mice (body weight 25 to 30 g) were used and allowed to ingest food and water ad libitum until commencement of experiments.
A group of 25 mice was divided into 5 groups, which 5 mice each per group were respectively transferred to fasting cages to adjust to new environments for about 1 hour. Then, each mouse was orally administered 3 mg/kg suspension of a test compound in 0.5% tragacanth solution to measure each stool weight of each group 30, 60, and 120 minutes after oral administration.
Efficacies were evaluated by Dunnett assay between test compounds and control.

| Structure (SMILES) | Effect |
| --- | --- |
| COC(=O)N1CCC(CN2CCOC(CNC(=O)c3cc(Cl)c(N)c4c3OCC4)C2)CC1 (stereo not shown) [Example 138] | ++ |
| COc1cc(N)c(Cl)cc1C(=O)NC[C@H]1CN(CC2CCN(C(=O)Nc3ccccc3)CC2)CCO1 [Example 52] | − |
| Nc1c(Cl)cc(C(=O)NC[C@H]2CN(CC3CCN(C(=O)C4CCOC4)CC3)CCO2)c2c1CCO2 (stereo partly shown) [Example 232] | ++ |
| COc1cc(N)c(Cl)cc1C(=O)NC[C@H]1CN(CC2CCN(C(=O)N3CCCC3)CC2)CCO1 [Example 89] | + |
| COc1cc(N)c(Cl)cc1C(=O)NC[C@H]1CN(CC2CCN(C(=O)N(C(C)C)C(C)C)CC2)CCO1.Cl [Example 88] | ++ |
| COc1cc(N)c(Cl)cc1C(=O)NC[C@H]1CN(CC2CCN(C(=O)CC#N)CC2)CCO1 [Example 223] | ++ |
| COc1cc(N)c(Cl)cc1C(=O)NC[C@H]1CN(CC2CCN(C(=O)c3ccc(Cl)cc3)CC2)CCO1 [Example 115] | + |
| Nc1c(Cl)cc(C(=O)NC[C@H]2CN(CC3CCN(C(=O)CO)CC3)CCO2)c2c1CCO2 [Example 233, (S)-4-amino-5-chloro-N-[{4-[(1-hydroxyacetyl-4-piperidinyl)methyl]-2-morpholinyl}methyl]-2,3-dihydrobenzo[b]furan-7-carboxamide] | ++ |
| COc1cc(N)c(Cl)cc1C(=O)NC[C@H]1CN(CC2CCN(C(=O)Nc3cccc(C(F)(F)F)c3)CC2)CCO1 [Example 54] | + |
| CC(=O)N1CCC(CN2CCO[C@@H](CNC(=O)c3cc(Cl)c(N)c4c3OCC4)C2)CC1 [Example 231] | ++ |
| COc1cc(N)c(Cl)cc1C(=O)NC[C@H]1CN(CC2CCN(C(=O)C(C)=O)CC2)CCO1 [Example 227] | ++ |
